From patent US20100152434A1, “Protein Kinase-binding Nucleosides and Associated Methods” (priority 2007, published 2010)
Read-outs that look alike come from different tables or passages of the source.

How the values were obtained:
[1] = tested on: RPMI-8226
[2] = tested on: HOP-92
[3] = tested on: NCI-H322M; conditions: NCI-H322M
[4] = tested on: NCI-H460
[5] = tested on: KM12
[6] = tested on: UACC-257
[7] = tested on: IGROV1
[8] = tested on: OVCAR-5
[9] = tested on: 788-0; conditions: 786-0
[10] = tested on: SN12C
[11] = tested on: NCI/ADR-RES; conditions: NCI/ADR-RES
[12] = tested on: MDA-MB-435; conditions: MDA-MB-435
[13] = tested on: BT-549
[14] = tested on: A549/ATCC; assay: cells; conditions: Homo sapiens
[15] = tested on: HOP-92; assay: cells; conditions: Homo sapiens
[16] = tested on: NCI-H460; assay: cells; conditions: Homo sapiens
[17] = tested on: COLO 205; assay: cells; conditions: Homo sapiens
[18] = tested on: SF-268; assay: cells; conditions: Homo sapiens
[19] = tested on: LOX IMVI; assay: cells; conditions: Homo sapiens
[20] = tested on: M14; assay: cells; conditions: Homo sapiens
[21] = tested on: UACC-257; assay: cells; conditions: Homo sapiens
[22] = tested on: OVCAR-5; assay: cells; conditions: Homo sapiens
[23] = tested on: SK-OV-3; assay: cells; conditions: Homo sapiens
[24] = tested on: CAKI-1; assay: cells; conditions: Homo sapiens
[25] = tested on: DU-145; assay: cells; conditions: Homo sapiens

CNC(=O)NC[C@H]1O[C@@H](n2cnc3c(NC(=O)Nc4ccccc4)ncnc32)[C@H](O[Si](C)(C)C(C)(C)C)[C@@H]1CC(=O)N(C)OC [Compound 13, 2′-O-(tert-Butyldimethylsilyl)-3′,5′-dideoxy-3′-[(N-methoxy-N-methylcarboxamido)methyl]-5′-[(N-methylcarbamoyl)amino]-N^6-(N-phenylcarbamoyl)adenosine]
TGI [1]: 5.40E−6 Molar | Percent Growth ([1]; Log10 Concentration −4.0): −16% | Percent Growth ([1]; Log10 Concentration −5.0): −25% | Percent Growth ([1]; Log10 Concentration −6.0): 69% | Percent Growth ([1]; Log10 Concentration −7.0): 91% | Percent Growth ([1]; Log10 Concentration −8.0): 80% | TGI [2]: 2.43E−5 Molar | Percent Growth ([2]; Log10 Concentration −4.0): −43% | Percent Growth ([2]; Log10 Concentration −5.0): 27% | Percent Growth ([2]; Log10 Concentration −6.0): 67% | Percent Growth ([2]; Log10 Concentration −7.0): 93% | Percent Growth ([2]; Log10 Concentration −8.0): 80% | TGI [3]: >1.00E−4 Molar | Percent Growth ([3]; Log10 Concentration −4.0): 73% | Percent Growth ([3]; Log10 Concentration −5.0): 90% | Percent Growth ([3]; Log10 Concentration −6.0): 102% | Percent Growth ([3]; Log10 Concentration −7.0): 98% | Percent Growth ([3]; Log10 Concentration −8.0): 97% | TGI [4]: >1.00E−4 Molar | Percent Growth ([4]; Log10 Concentration −4.0): 25% | Percent Growth ([4]; Log10 Concentration −5.0): 44% | Percent Growth ([4]; Log10 Concentration −6.0): 90% | Percent Growth ([4]; Log10 Concentration −7.0): 93% | Percent Growth ([4]; Log10 Concentration −8.0): 96% | TGI [5]: >1.00E−4 Molar | Percent Growth ([5]; Log10 Concentration −4.0): 30% | Percent Growth ([5]; Log10 Concentration −5.0): 62% | Percent Growth ([5]; Log10 Concentration −6.0): 106% | Percent Growth ([5]; Log10 Concentration −7.0): 108% | Percent Growth ([5]; Log10 Concentration −8.0): 101% | TGI [6]: >1.00E−4 Molar | Percent Growth ([6]; Log10 Concentration −4.0): 22% | Percent Growth ([6]; Log10 Concentration −5.0): 65% | Percent Growth ([6]; Log10 Concentration −6.0): 102% | Percent Growth ([6]; Log10 Concentration −7.0): 103% | Percent Growth ([6]; Log10 Concentration −8.0): 95% | TGI [7]: 6.57E−5 Molar | Percent Growth ([7]; Log10 Concentration −4.0): −6% | Percent Growth ([7]; Log10 Concentration −5.0): 26% | Percent Growth ([7]; Log10 Concentration −6.0): 82% | Percent Growth ([7]; Log10 Concentration −7.0): 89% | Percent Growth ([7]; Log10 Concentration −8.0): 89% | TGI [8]: >1.00E−4 Molar | Percent Growth ([8]; Log10 Concentration −4.0): 35% | Percent Growth ([8]; Log10 Concentration −5.0): 71% | Percent Growth ([8]; Log10 Concentration −6.0): 92% | Percent Growth ([8]; Log10 Concentration −7.0): 98% | Percent Growth ([8]; Log10 Concentration −8.0): 99% | TGI [9]: >1.00E−4 Molar | Percent Growth ([9]; Log10 Concentration −4.0): 8% | Percent Growth ([9]; Log10 Concentration −5.0): 48% | Percent Growth ([9]; Log10 Concentration −6.0): 93% | Percent Growth ([9]; Log10 Concentration −7.0): 92% | Percent Growth ([9]; Log10 Concentration −8.0): 95% | TGI [10]: >1.00E−4 Molar | Percent Growth ([10]; Log10 Concentration −4.0): 49% | Percent Growth ([10]; Log10 Concentration −5.0): 66% | Percent Growth ([10]; Log10 Concentration −6.0): 96% | Percent Growth ([10]; Log10 Concentration −7.0): 104% | Percent Growth ([10]; Log10 Concentration −8.0): 106% | TGI [11]: >1.00E−4 Molar | Percent Growth ([11]; Log10 Concentration −4.0): 55% | Percent Growth ([11]; Log10 Concentration −5.0): 76% | Percent Growth ([11]; Log10 Concentration −6.0): 105% | Percent Growth ([11]; Log10 Concentration −7.0): 109% | Percent Growth ([11]; Log10 Concentration −8.0): 109% | TGI [12]: >1.00E−4 Molar | Percent Growth ([12]; Log10 Concentration −4.0): 36% | Percent Growth ([12]; Log10 Concentration −5.0): 51% | Percent Growth ([12]; Log10 Concentration −6.0): 98% | Percent Growth ([12]; Log10 Concentration −7.0): 97% | Percent Growth ([12]; Log10 Concentration −8.0): 100% | TGI [13]: >1.00E−4 Molar | Percent Growth ([13]; Log10 Concentration −4.0): 26% | Percent Growth ([13]; Log10 Concentration −5.0): 70% | Percent Growth ([13]; Log10 Concentration −6.0): 96% | Percent Growth ([13]; Log10 Concentration −7.0): 98% | Percent Growth ([13]; Log10 Concentration −8.0): 95% | GI50 ([14]; A549): 9.35 µM | CC50 ([14]; A549, read-out: LC50): > 100 µM | GI50 ([15]; HOP-92): 2.71 µM | CC50 ([15]; HOP-92, read-out: LC50): > 100 µM | GI50 ([16]; NCI-H460): 7.49 µM | CC50 ([16]; NCI-H460, read-out: LC50): > 100 µM | GI50 ([17]; COLO 205): 12.3 µM | CC50 ([17]; COLO 205, read-out: LC50): > 100 µM | GI50 ([18]; SF-268): 8.29 µM | CC50 ([18]; SF-268, read-out: LC50): > 100 µM | GI50 [19]: 7.3 µM | CC50 ([19]; read-out: LC50): > 100 µM | GI50 ([20]; M14): 15.2 µM | CC50 ([20]; M14, read-out: LC50): > 100 µM | GI50 ([21]; UACC-257): 22.6 µM | CC50 ([21]; UACC-257, read-out: LC50): > 100 µM | GI50 ([22]; OVCAR-5): 38.2 µM | CC50 ([22]; OVCAR-5, read-out: LC50): > 100 µM | GI50 ([23]; SK-OV-3): 52.7 µM | CC50 ([23]; SK-OV-3, read-out: LC50): > 100 µM | GI50 ([24]; CAKI-1): 53.8 µM | CC50 ([24]; CAKI-1, read-out: LC50): > 100 µM | GI50 ([25]; DU-145): 16.6 µM | CC50 ([25]; DU-145, read-out: LC50): > 100 µM
